{
  "source": "patent US9873724B2",
  "about": "“Pro-angiogenic peptides and peptide conjugates” (Yissum Research Development Company of the Hebrew …, priority 2013, dated 2018)",
  "key": {"[1]": {"system": "blood vessels of mice (Evans-Blue leakage)", "assay": "Inhibition of blood-vessel leakiness (Evans-Blue leakage in mice)", "type": "in vivo, mouse", "protocol": "The peptide of SEQ ID NO: 12 (Myr-Gly-Nle-Arg-Pro-Tyr-NH2), or vehicle (10% PEG-400, 90% DDW), were injected i.p. to mice, in an amount of 20 or 40 mg/Kg. 5 min, 10 min, 1 hr or 4 hrs later, 0.2 ml per 25 g mouse (40 mg/Kg) of 5 mg/ml Evans-Blue solution in double distilled water (DDW) was injected i.p. The experiment was terminated after 30 min and skull was opened to view the brain surface (“Neurosurgery”) and assess the amount of Evans-Blue leaking from blood vessels.\nPrinciple of peripheral vessels staining: Evans-Blue; it is a poly-anionic compound having a M.W. of 960 Dalton, that binds tightly to albumin and being used to track vessel-permeability. In case of blood-vessel leakiness, the Evans-Blue-albumin complex escapes from the blood-stream into the surrounding interstitial fluid with the result of blue coloring of the extremities and the bluish appearance at the brain surface.\nIn a specific experiment, 40 mg/kg of peptide of SEQ ID NO: 12 or vehicle were injected, each to 2 mice, i.p. 5 min before color injection. Evans-blue, at 40 mg/kg was then injected i.p. and 30 min later “Neurosurgery” was performed and the escape of the color from the blood stream was monitored as manifested by the bluish appearance of the brain surrounding tissue.\nIn another experiment, 40 mg/kg of peptide SEQ ID NO: 12 were injected to mice, i.p. 1 or 4 hours before color injection (Evans-blue, 40 mg/kg i.p. for 30 minutes). Control mice received i.p. injection of vehicle ([…]) 1 hour before color injection."}, "[2]": {"system": "mouse aortic rings", "assay": "Aortic ring assay ex-vivo (capillary sprouting from mouse aortic rings in collagen; repeated with VEGF)", "type": "cell-based", "set-up": "Capillary length 10 μM (10 μM) / Capillary length 20 μM / Capillary length 10 μM: unit not given here", "protocol": "Thoracic aortas were dissected from 7- to 8-week-old male SABRA mice. The aortas were immediately transferred to Petri dishes containing BIO-MPM-1. The adventitia and small vessels around the aorta were carefully removed under a dissecting microscope, and transverse cuts of 0.75 mm were made. The resulting aortic rings were extensively rinsed and incubated overnight in BIO-MPM-1 containing penicillin-streptomycin. Subsequently, the rings were embedded in 50 μl collagen mix (7 parts collagen, 1 part 10× Eagle minimal essential medium, MEM, and 2 parts 0.15 M sodium bicarbonate) in 96-well plates (Nunc, Rochester, N.Y.). Solidification of the collagen solution was achieved by raising the pH to neutral and the temperature to 37° C. 150 μl BIO-MPM-1 containing penicillin-streptomycin and the tested factors or peptides) was added to the embedded rings, and the plates were incubated at 37° C. in a humidified 10% CO2 atmosphere. Medium containing factors and/or peptides was refreshed at days 4 and 8. After two weeks, the rings were fixed with 4% formaldehyde for 24 hours, followed by staining with crystal violet (0.02%) dissolved in ethanol and extensive washing to remove excessive stain. The effect of factors and peptides was examined in 4 wells (4 rings of mouse aortic rings) per assay. Micrographs of representative rings were taken using a digital camera (Nikon, Tokyo, Japan). Morphometric analysis of sprouting was performed manually using Image-Pro 4.5 software (Media Cybernetics, Silver Spring, Md.) according to Nissanov et al. (Lab Invest. 1995; 73:734-739). Nonstained rings were subjected to paraffin sections and hematoxylin and eosin (H&E) staining.\nFIGS. 1A-1C represents aortic ring capillary length and FIGS. 2A-2C aortic ring capillary width. In the table: K-Flu is a Lysine residue coupled with a fluorescein moiety, 4BrPhe is 4-bromo-Phenylalanine, Dod is Dodecanoyl, Dec designates Decanoyl, Oct is Octanoyl, and Hex is Hexanoyl.\nThe aortic ring assay was repeated in the presence of 10 μM concentration of peptides AB-033 (SEQ ID NO: 13) and AB-034 (SEQ ID NO: 14) together with the pro-angiogenetic protein VEGF."}, "[3]": {"system": "C57BL mice, polymicrobial septic mouse model", "assay": "In-vivo septic shock model (cecum ligation and puncture)", "conditions": "20 mg/Kg s.c. once a day for 5 days; FIG. 5", "protocol": "The polymicrobial septic mouse model of severe sepsis (Belikoff et al. The Journal of Immunology, 2011, 186: 2444-2453), was induced in wild-type (WT) C57BL mice using cecum ligation and puncture (CLP) approach. In summary, mice were anesthetized, a 1.5-cm, longitudinal incision in the lower right quadrant of the abdomen was performed and the cecum was exposed. The distal two third of the cecum was ligated with 4-0 silk suture and punctured doubly with an 18-gauge needle. The cecum was then replaced into the peritoneal cavity and the incision was closed with surgical staples. After that, the mice were resuscitated with sterile saline injected subcutaneously and allowed free access to food and water after awaking.\nFollowing this procedure, mice were then injected s.c. once a day, for 5 days, with either vehicle or with 20 mg/Kg of GPS-725.017 (SEQ ID NO: 12)."}},
  "note": "Where “and” joins values, the source holds several entries; their conditions need not be identical. Equal values may be shown once. Square brackets hold non-standard residues; d marks the D form. * marks the point of attachment. Myristoyl = CCCCCCCCCCCCCC(=O)*; Nle = CCCC[C@H](N)C(=O)O",
  "data": [
    {"substance": "Myr-Gly-Nle-Arg-Pro-Tyr-NH2 (Myristoyl-G[Nle]RPY-NH2; SMILES CCCCCCCCCCCCCC(=O)NCC(=O)N[C@@H](CCCC)C(=O)N[C@@H](CCCNC(=N)N)C(=O)N1CCC[C@H]1C(=O)N[C@@H](Cc1ccc(O)cc1)C(N)=O) [AB-017]", "values": [
      {"measurement": "Evans-Blue leaking from blood vessels (brain and periphery)", "setting": "[1]; 20 mg/kg i.p. 10 min before Evans-blue 40 mg/kg i.p., 30 minutes", "value": "no color was leaking"},
      {"measurement": "Evans-Blue leaking from blood vessels (brain)", "setting": "[1]; 40 mg/kg i.p. 5 min before Evans-blue 40 mg/kg i.p., read 30 min later", "value": "no color was leaking"},
      {"measurement": "Evans-Blue leaking from blood vessels (brain)", "setting": "[1]; 40 mg/kg i.p. 1 hr before Evans-blue 40 mg/kg i.p., 30 minutes", "value": "no color was leaking"},
      {"measurement": "Evans-Blue leaking from blood vessels (brain)", "setting": "[1]; 40 mg/kg i.p. 4 hrs before Evans-blue 40 mg/kg i.p., 30 minutes", "value": "only a partial protection"},
      {"measurement": "capillary / vessel formation (in words)", "setting": "[2]; aortic ring assay, FIGS. 1A-1C and 2A-2C", "value": "induce massive capillary formation"},
      {"measurement": "Capillary length 10 μM", "setting": "[2]; peptide 10 μM, rings fixed after two weeks", "value": "3,100 and 3,770"},
      {"measurement": "Capillary length 20 μM", "setting": "[2]; peptide 20 μM, rings fixed after two weeks", "value": "11,200 and 15,300"},
      {"measurement": "rescue from death in septic-shock model", "setting": "[3]", "value": "rescue mice from death"}
    ]}
  ]
}
